Laboratory results as given in paper PMC9453454, “Design, synthesis, and anticancer activity of three novel palbociclib derivatives” (Frontiers in Oncology, 2022).

Tests used:
HepG2 cells = experiment: MTT in vitro cytotoxicity, HepG2; assay type: cell-based, human; details: HepG2 human liver cancer cells, MTT, 48 h; read-out: IC50
Procedure: (§1) Human lung cancer cells (NCI-H460, NCI-H1299, and A549), human breast cancer cells (MDA-MB-231, MDA-MB-453, and MCF-7), human liver cancer cells (Huh-7 and HepG2), human colon cancer cells (coca-2, HT-29, and HCT116), human cervical cancer cells (HeLa), human normal lung cells (BEAS-2B), and human normal […] (MCF-10) were from the State Key Laboratory of Pharmaceutical Biotechnology, Nanjing University. NCI-H460 were cultured in 1640 medium containing 10% fetal bovine serum (FBS). MDA-MB-231 were cultured in L15 medium containing 10% FBS without CO2, and other cell lines were cultured in DMEM medium containing 10% FBS CO2 in the incubator.
(§2) MTT assay was used to identify 14 different cell lines (human lung cancer cells NCI-H460, NCI-H1299, and A549; human breast cancer cells MDA-MB-231, MDA-MB-453, and MCF-7; human liver cancer cells Huh-7 and HepG2; human colon cancer cells coca-2, HT-29, and HCT116; and human cervical cancer cells HeLa) and 2 kinds of normal cell lines (human normal lung epithelial cells BEAS-2B, human normal breast epithelial cells MCF10-A) for quantitative analysis ([15]). In addition, 10-HCPT and palbociclib were used as positive control.
(§3) Cells were harvested during the logarithmic growth phase and seeded into 96-well plates at a density of 2.0×10^3 cells/well. After being incubated for 24 h, the cells were treated with different concentrations of various culture programs for 48 h. Afterwards, 20 μl of MTT solution (5 mg/ml) was added to each well, and the cells were incubated in a 5% CO2 atmosphere at 37°C for another 4 h. Then, the supernatant was discarded, and the formazan crystals were dissolved in 150 μl DMSO. Subsequently, the absorbance was measured at 570 nm via a Tecan microplate reader. The concentration that caused 50% inhibition of cell viability (IC50) values was calculated by GraphPad Software. Triplicate experiments were performed in parallel for each concentration, and the results are shown as the mean ± SD. The inhibitory ratio was calculated using the following formula: inhibitory ratio (%) = [1−(mean absorbance of experiment group)/(mean absorbance of control group)] × 100.

HCT116 cells = experiment: MTT in vitro cytotoxicity, HCT116; assay type: cell-based, human; details: HCT-116; HCT116 human colon cancer cells, MTT, 48 h; read-out: IC50
Procedure: as §1, §2, §3

Huh-7 cells = experiment: MTT in vitro cytotoxicity, Huh-7; assay type: cell-based, human; details: Huh-7 human liver cancer cells, MTT, 48 h; read-out: IC50
Procedure: as §1, §2, §3

MDA-MB-453 cells = experiment: MTT in vitro cytotoxicity, MDA-MB-453; assay type: cell-based, human; details: MDA-MB-453 human breast cancer cells, MTT, 48 h; read-out: IC50
Procedure: as §1, §2, §3

NCI-H1299 cells = experiment: MTT in vitro cytotoxicity, NCI-H1299; assay type: cell-based, human; details: NCI-H1299 human lung cancer cells, MTT, 48 h; read-out: IC50
Procedure: as §1, §2, §3

HT-29 cells = experiment: MTT in vitro cytotoxicity, HT-29; assay type: cell-based, human; details: HT-29 human colon cancer cells, MTT, 48 h; read-out: IC50
Procedure: as §1, §2, §3

A549 cells = experiment: MTT in vitro cytotoxicity, A549; assay type: cell-based, human; details: A549 human lung cancer cells, MTT, 48 h; read-out: IC50
Procedure: as §1, §2, §3

MCF-7 cells = experiment: MTT in vitro cytotoxicity, MCF-7; assay type: cell-based, human; details: MCF7; MCF-7 human breast cancer cells, MTT, 48 h; read-out: IC50
Procedure: as §1, §2, §3

MCF10-A cells = experiment: MTT in vitro cytotoxicity, MCF10-A normal breast epithelial cells; assay type: cell-based, human; details: MCF-10A; MCF10-A human normal breast epithelial cells, MTT, 48 h; read-out: IC50
Procedure: as §1, §2, §3

Hela cells = experiment: MTT in vitro cytotoxicity, Hela; assay type: cell-based, human; details: Hela human cervical cancer cells, MTT, 48 h; read-out: IC50
Procedure: as §1, §2, §3

Coca-2 cells = experiment: MTT in vitro cytotoxicity, Coca-2; assay type: cell-based, human; details: Coca-2 human colon cancer cells, MTT, 48 h; read-out: IC50
Procedure: as §1, §2, §3

BEAS-2B cells = experiment: MTT in vitro cytotoxicity, BEAS-2B normal lung epithelial cells; assay type: cell-based, human; details: BEAS-2B human normal lung epithelial cells, MTT, 48 h; read-out: IC50
Procedure: as §1, §2, §3

NCI-H460 cells = experiment: MTT in vitro cytotoxicity, NCI-H460; assay type: cell-based, human; details: NCI-H460 human lung cancer cells, MTT, 48 h; read-out: IC50
Procedure: as §1, §2, §3

MDA-MB-231 cells = experiment: MTT in vitro cytotoxicity, MDA-MB-231; assay type: cell-based, human; details: MDA-MB-231 human breast cancer cells, MTT, 48 h; read-out: IC50
Procedure: as §1, §2, §3

| SMILES | IC50 (HepG2 cells) [µM] | IC50 (HCT116 cells) [µM] | IC50 (Huh-7 cells) [µM] | IC50 (MDA-MB-453 cells) [µM] | IC50 (NCI-H1299 cells) [µM] | IC50 (HT-29 cells) [µM] | IC50 (A549 cells) [µM] | IC50 (MCF-7 cells) [µM] | IC50 (MCF10-A cells) [µM] | melting point [°C] | IC50 (Hela cells) [µM] | IC50 (Coca-2 cells) [µM] | IC50 (BEAS-2B cells) [µM] | IC50 (NCI-H460 cells) [µM] | IC50 (MDA-MB-231 cells) [µM] |
| --- | --- | --- | --- | --- | --- | --- | --- | --- | --- | --- | --- | --- | --- | --- | --- |
| CC[C@]1(O)C(=O)OCc2c1cc1n(c2=O)Cc2cc3cc(OC(=O)CCC(=O)N4CCN(c5ccc(Nc6ncc7c(C)c(C(C)=O)c(=O)n(C8CCCC8)c7n6)nc5)CC4)ccc3nc2-1 [HP-2, (R)-4-ethyl-4-hydroxy-3,14-dioxo-3,4,12,14-tetrahydro-1H-pyrano[3’,4’:6,7] indolizino[1,2-b]quinolin-9-yl4-(4-(6-((6-acetyl-8-cyclopentyl-5-methyl-7-oxo-7,8-dihydropyrido[2,3-d]pyrimidin-2-yl)amino)pyridin-3-yl)piperazin-1-yl)-4-oxobutanoate] | 8.11 ± 1.34 | 19.6 ± 1.21 | 16.5 ± 1.76 | 6.38 ± 0.97 | 3.35 ± 0.01 | 11.6 ± 0.57 | 5.24 ± 0.37 | 16.7 ± 0.59 | 31.38 ± 0.23 | 48.9 to 50.5 | 7.82 ± 2.34 | 18.8 ± 0.46 | 34.8 ± 0.44 | 1.32 ± 0.01 | 16.5 ± 0.82 |
| CC[C@]1(O)C(=O)OCc2c1cc1n(c2=O)Cc2cc3cc(OC(=O)/C=C/C(=O)N4CCN(c5ccc(Nc6ncc7c(C)c(C(C)=O)c(=O)n(C8CCCC8)c7n6)nc5)CC4)ccc3nc2-1 [HP-3, (R)-4-ethyl-4-hydroxy-3,14-dioxo-3,4,12,14-tetrahydro-1H-pyrano[3’,4’:6,7] indolizino[1,2-b]quinolin-9-yl(E)-4-(4-(6-((6-acetyl-8-cyclopentyl-5-methyl-7-oxo-7,8-dihydropyrido[2,3-d]pyrimidin-2-yl)amino)pyridin-3-yl)piperazin-1-yl)-4-oxobut-2-enoate] | 6.84 ± 0.91 | 23.2 ± 0.49 | 33.7 ± 1.03 | 8.31 ± 0.52 | 4.35 ± 0.13 | 15.4 ± 0.42 | 5.52 ± 0.11 | 21.4 ± 1.27 | 37.3 ± 1.66 | 45.7 to 47.3 | 14.9 ± 0.73 | 17.1 ± 0.28 | 39.98 ± 0.16 | 2.08 ± 0.25 | 27.3 ± 1.43 |
| CC(=O)c1c(C)c2cnc(Nc3ccc(N4CCNCC4)cn3)nc2n(C2CCCC2)c1=O [Palbociclib] | 7.55 ± 1.49 | 31.6 ± 1.21 | 32.1 ± 1.93 | 5.15 ± 1.04 | 5.09 ± 0.24 | 16.8 ± 0.39 | 6.16 ± 0.19 | 8.73 ± 0.33 | 39.7 ± 0.57 |  | 21.35 ± 0.13 | 35.9 ± 0.41 | 38.8 ± 0.59 | 2.95 ± 0.11 | 11.7 ± 1.75 |
